Several values for one entry are separate records, joined by “and”; a condition that tells them apart may be missing. Equal entries are not always repeated.
How the values were obtained:
Mus musculus = settings: for LD50: acute
Oryctolagus sp. = settings: for LD50: acute
Rattus norvegicus [1] = tested on: Rattus norvegicus
Rattus norvegicus [2] = settings: oral, gavage
Canidae = settings: chronic, oral, diet, Dog Other
Rattus norvegicus [3] = settings: Hershberger; duration: 10 days; oral; gavage; Sprague-Dawley; inactive + Negative + Negative + neither + negative
[4] = duration: 2 years, M/F, abnormal pigments in blood
[5] = duration: 2 years, M/F, testicular degeneration
[6] = duration: 6 months, M/F, increased serum alkaline phosphatase levels and increased liver-to-brain weight ratio
[7] = acute, oral, gavage, Sprague-Dawley
[8] = subchronic, duration: 13 weeks, oral, gavage, Sprague-Dawley
[9] = duration: 1 years, F, anemia (males)
[10] = duration: 1 years, M, anemia (males)
[11] = duration: 1 years, M, increased serum bilirubin and aspartate aminotransferase, increased urinary volume

C=CCOC(=O)OCCOCCOC(=O)OCC=C [Diallyl diglycol carbonate]
LD50 (Mus musculus; injection, Intraperitoneal, albino): 269 mg/kg
NOAEL (Oryctolagus sp.; reproduction developmental, duration: 6 days, dermal, New Zealand): 0.1 mg/kg-day
LD50 (Rattus norvegicus [1]; acute, oral, gavage, Crl): 349 mg/kg
LD50 (Rattus norvegicus [1]; acute, oral, gavage, Fischer 344): 515 mg/kg

C1=CC2C3C=CC(C3)C2C1 (configuration not stated) [Dicyclopentadiene]
NOAEL (Oryctolagus sp.; reproduction developmental, duration: 14 days, oral, gavage, F, New Zealand): 25 mg/kg-day
NOAEL (Rattus norvegicus [1]; developmental, duration: 10 days, oral, diet, Sprague-Dawley): 750 ppm
NOAEL (Rattus norvegicus [1]; developmental, duration: 10 days, oral, gavage, Sprague-Dawley): 50 mg/kg-day
NOAEL (Rattus norvegicus [1]; reproduction developmental, duration: 10 days, oral, diet, F, Sprague-Dawley): 750 ppm
NOAEL (Rattus norvegicus [1]; reproduction developmental, oral, diet, Sprague-Dawley, generation: F0): 750 ppm
NOAEL (Rattus norvegicus [1]; reproduction developmental, oral, diet, Sprague-Dawley, generation: F1): 750 ppm
NOAEL (Rattus norvegicus [1]; reproduction developmental, oral, diet, Sprague-Dawley, generation: F2): 750 ppm
NOAEL (Rattus norvegicus [1]; reproduction developmental, oral, gavage, F, Sprague-Dawley): 20 mg/kg-day
NOAEL (Rattus norvegicus [1]; reproduction developmental, oral, gavage, M, Sprague-Dawley): 100 mg/kg-day
NOAEL (Rattus norvegicus [1]; reproduction developmental, oral, gavage, Sprague-Dawley, generation: F1): 20 mg/kg-day
NOEL (Rattus norvegicus [2]; short-term, duration: 28 days, M/F, Fischer 344, Deaths + Clinical Observation: Salivation + Body Weight Changes: Weight gain decrease + Food Consumption: decrease + Blood Chemistry: GPT …): 8 mg/kg-day

CN(C)C(=O)Nc1ccc(Cl)c(Cl)c1 [Diuron]
NOEL (Rattus norvegicus [2]; subchronic, M, Sprague-Dawley, Body Weight Changes: decrease + Hematology: RBC decrease, Hgb decrease, Hct decrease, MCHC decrease, MCV increase, Ret increase + Blood …): 20 mg/kg-day
LEL (Canidae; [4]): 3.12 mg/kg-day
NOEL (Canidae; [4]): 0.625 mg/kg-day

CCOC(=O)CCl [Ethyl chloroacetate]
LD50 (Mus musculus; injection, subcutaneous): 250 mg/kg
LD50 (Mus musculus; oral): 350 mg/kg
LD50 (Oryctolagus sp.; dermal): 335 mg/kg and 230 mg/kg
LD50 (Oryctolagus sp.; dermal, occlusive, New Zealand): 255 mg/kg
LD50 (Rattus norvegicus [1]; acute, dermal): 161 mg/kg

CCOP(=O)=O.CCOP(=O)=O.CCOP(=O)=O.[Al+3] [Fosetyl aluminum]
NOEL (Canidae; duration: 2 years, testicular degeneration): 250 mg/kg-day
LEL (Canidae; [5]): 400 mg/kg-day
NOEL (Canidae; [5]): 250 mg/kg-day

COCC(=O)N(c1c(C)cccc1C)C(C)C(=O)OC (configuration not stated) [Metalaxyl]
LEL (Canidae; [6]): 25 mg/kg-day
NOEL (Canidae; [6]): 6.25 mg/kg-day
NOEL (Rattus norvegicus [3]): 350 mg/kg-day

CC(C)CCC(C)Nc1ccc(NC(C)CCC(C)C)cc1 (configuration not stated) [N,N'-Bis(1,4-dimethylpentyl)-4-phenylenediamine]
LD50 (Oryctolagus sp.; dermal, occlusive, New Zealand): > 3160 mg/kg
LC50 (Rattus norvegicus [1]; acute, inhalation): > 400 mg/m3
LD50 (Rattus norvegicus [1]; [7]): 730 mg/kg
LOAEL (Rattus norvegicus [1]; chronic, duration: 22 weeks, inhalation): 100 mg/m3
NOAEL (Rattus norvegicus [1]; developmental, duration: 10 days, oral, gavage, Charles River CD Albino): 150 mg/kg-day
NOAEL (Rattus norvegicus [1]; reproduction developmental, duration: 23 weeks, oral, diet, generation: F0): 30 ppm
NOAEL (Rattus norvegicus [1]; reproduction developmental, duration: 23 weeks, oral, diet, generation: F1): 30 ppm
NOAEL (Rattus norvegicus [1]; reproduction developmental, duration: 23 weeks, oral, diet, generation: F2): 30 ppm
NOAEL (Rattus norvegicus [1]; reproduction developmental, duration: 10 days, oral, gavage, F, Charles River CD Albino): 25 mg/kg-day
NOAEL (Rattus norvegicus [1]; subchronic, duration: 30 days, oral, diet, F, Sprague-Dawley): 28.8 mg/kg-day
NOAEL (Rattus norvegicus [1]; subchronic, duration: 30 days, oral, diet, M, Sprague-Dawley): 9.6 mg/kg-day
NOAEL (Rattus norvegicus [1]; subchronic, duration: 90 days, oral, diet, M, Sprague-Dawley): 9.6 mg/kg-day

CN1C(=O)c2ccc([N+](=O)[O-])cc2C1=O [N-Methyl-4-nitrophthalimide]
LD50 (Oryctolagus sp.; dermal, New Zealand): > 2000 mg/kg
NOAEL (Oryctolagus sp.; developmental, duration: 13 days, oral, gavage, New Zealand): 50 mg/kg-day
NOAEL (Oryctolagus sp.; reproduction developmental, duration: 13 days, oral, gavage, F, New Zealand): 50 mg/kg-day
LD50 (Rattus norvegicus [1]; acute, inhalation, whole body, Sprague-Dawley): > 36 mg/L
LD50 (Rattus norvegicus [1]; [7]): 2800 mg/kg
NOAEL (Rattus norvegicus [1]; developmental, duration: 9 days, oral, gavage, Sprague-Dawley): 50 mg/kg-day
NOAEL (Rattus norvegicus [1]; reproduction developmental, duration: 4 weeks, oral, gavage, Sprague-Dawley): > 25 mg/kg-day
NOAEL (Rattus norvegicus [1]; reproduction developmental, duration: 4 weeks, oral, gavage, Sprague-Dawley, generation: F0): 2.5 mg/kg-day
NOAEL (Rattus norvegicus [1]; reproduction developmental, duration: 4 weeks, oral, gavage, Sprague-Dawley, generation: F1): > 25 mg/kg-day
NOAEL (Rattus norvegicus [1]; reproduction developmental, duration: 9 days, oral, gavage, F, Sprague-Dawley): 10 mg/kg-day
LOAEL (Rattus norvegicus [1]; [8]): 10 mg/kg-day
NOAEL (Rattus norvegicus [1]; [8]): 1 mg/kg-day

CCCCCCCCC=O [Nonanal]
LD50 (Oryctolagus sp.; dermal, albino): > 5000 mg/kg
LD50 (Rattus norvegicus [1]; acute, oral, gavage, Wistar): > 5000 mg/kg

CCC/C(=N\OCC)C1=C(O)CC(CC(C)SCC)CC1=O (configuration not stated) [Sethoxydim]
LEL (Canidae; [9]): 19.9 mg/kg-day
NOEL (Canidae; [9]): 9.41 mg/kg-day
LEL (Canidae; [10]): 17.5 mg/kg-day
NOEL (Canidae; [10]): 8.86 mg/kg-day

CCN(CC)C(=S)SSC(=S)N(CC)CC [Tetraethylthiuram disulfide]
NOAEL (Mus musculus; reproduction developmental, duration: 6 days, oral, gavage, CD1, generation: F1): > 4900 mg/kg-day
LD50 (Oryctolagus sp.; dermal, occlusive, New Zealand): > 2000 mg/kg
LD50 (Rattus norvegicus [1]; [7]): 4570 mg/kg and > 5200 mg/kg and 7070 mg/kg
NOAEL (Rattus norvegicus [1]; reproduction developmental, duration: 19 days, oral, gavage, F, Sprague-Dawley): > 250 mg/kg-day

COC(=O)c1ccccc1S(=O)(=O)NC(=O)N(C)c1nc(C)nc(OC)n1 [Tribenuron-methyl]
LEL (Canidae; [11]): 8.16 mg/kg-day
NOEL (Canidae; [11]): 0.79 mg/kg-day

Cc1ccc(OP(=O)(Oc2ccc(C)cc2C)Oc2ccc(C)cc2C)c(C)c1 [Trixylyl phosphate]
LD50 (Oryctolagus sp.; dermal, New Zealand): > 2000 mg/kg
LD50 (Rattus norvegicus [1]; [7]): > 20000 mg/kg

— EPA's ToxValDB 9.5
